From publication doi:10.1101/2020.05.29.122762v3 (biorxiv, 2020)
Read-outs that look alike come from different tables or passages of the source.

Experiments:
[1] = target: type PO SadP-6407(31-328); conditions: PBS, 25 °C
type PN SadP(125-329) [2] = target: type PN SadP(125-329) (Streptococcus suis, UniProt G5DSS1, N271D); experiment: biochemical
[3] = target: T1, type PN SadP-D282(31-328) (Streptococcus suis, UniProt G5DSS1); conditions: PBS, 25 °C; n=1.14
T1 sequence (G5DSS1 31-328): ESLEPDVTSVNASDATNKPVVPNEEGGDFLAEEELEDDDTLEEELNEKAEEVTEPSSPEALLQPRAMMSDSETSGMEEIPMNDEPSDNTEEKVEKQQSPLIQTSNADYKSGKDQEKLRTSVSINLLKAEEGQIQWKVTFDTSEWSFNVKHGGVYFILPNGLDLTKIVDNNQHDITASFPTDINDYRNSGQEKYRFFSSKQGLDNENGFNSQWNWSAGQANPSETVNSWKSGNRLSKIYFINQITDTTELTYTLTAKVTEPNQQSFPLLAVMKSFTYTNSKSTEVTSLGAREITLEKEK

type PN SadP(125-329) [4] = target: T2, type PN SadP(125-329) (Streptococcus suis, UniProt G5DSS1); experiment: biochemical
T2 sequence (G5DSS1 125-329): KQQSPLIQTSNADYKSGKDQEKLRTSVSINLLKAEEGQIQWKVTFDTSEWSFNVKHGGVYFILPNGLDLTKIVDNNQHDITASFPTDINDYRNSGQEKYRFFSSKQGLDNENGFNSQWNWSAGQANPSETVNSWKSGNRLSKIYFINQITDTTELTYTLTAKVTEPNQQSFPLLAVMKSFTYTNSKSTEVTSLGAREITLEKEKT

Structure (SMILES) | Kd ([1]; n=0.85) | Kd (type PN SadP(125-329) [2]) | Kd [3] | Kd ([1]; n=0.13, poorly defined fit) | Kd (type PN SadP(125-329) [4])
C[Si](C)(C)CCO[C@@H]1O[C@H](CO)[C@H](O[C@H]2O[C@H](CO)[C@H](O)[C@H](O)[C@H]2O)[C@H](O)[C@H]1O [Galα1–4Gal TMSEt glycoside] | 3.5 ± 1.6 µM | 22.7 ± 7.2 µM |  |  | 
CC(=O)N[C@H]1[C@H](O[C@H]2[C@@H](O)[C@@H](CO)O[C@H](O[C@@H]3[C@H](O)[C@@H](O)[C@H](OCC[Si](C)(C)C)O[C@@H]3CO)[C@@H]2O)O[C@H](CO)[C@H](O)[C@@H]1O [GalNAcβ1–3Galα1–4Gal TMSEt glycoside] |  |  | 33.7 ± 3.5 µM | 940 ± 680 µM | 36 ± 4.8 µM
